From publication PMC4908596, “Fusing simulation and experiment: The effect of mutations on the structure and activity of the influenza fusion peptide” (Scientific Reports, 2016)
Ends that are not written are not given here.

Details: pH 5
With “GLFAAIAAFIEGGWTAMIDAWYGS [G4AG8AG16AG20A]” the “Kp (lipid/water partition coefficient)” value was 333. For GLFGAIAGFIEAAWTGMIDGWYGS [G12AG13A], the “Kp (lipid/water partition coefficient)” value was 442. For GLFGAIAGFIEGGATGMIDGWYGS [W14A], the “Kp (lipid/water partition coefficient)” value was 6265. With “GLFGAIAGFIEGGWTGMIDGWYGS [WT, reference compound]” the “Kp (lipid/water partition coefficient)” value was 10455.
